Test results reported in patent US20260365653A1, “IRREVERSIBLE MUTEGFR INHIBITORS” (Bayer Aktiengesellschaft, priority 2022, published 2026).

Key:
[1] = target: T1, mutEGFR (D770_N771insSVD) (Homo sapiens, UniProt P00533, DUP768-770); assay: Exon20-Mutant-EGFR (D770_N771insSVD) kinase assay (TR-FRET); assay type: biochemical; details: mutEGFR (D770_N771insSVD) kinase assay IC50, Table 2a; D770_N771insSVD; 2 mM ATP
T1 construct: GST-EGFR #3 (SVD between D770 and N771); made in house; host or cells: Sf9 insect cells (baculovirus)
T1 sequence (P00533 with tags, fused parts or gaps DUP768-770): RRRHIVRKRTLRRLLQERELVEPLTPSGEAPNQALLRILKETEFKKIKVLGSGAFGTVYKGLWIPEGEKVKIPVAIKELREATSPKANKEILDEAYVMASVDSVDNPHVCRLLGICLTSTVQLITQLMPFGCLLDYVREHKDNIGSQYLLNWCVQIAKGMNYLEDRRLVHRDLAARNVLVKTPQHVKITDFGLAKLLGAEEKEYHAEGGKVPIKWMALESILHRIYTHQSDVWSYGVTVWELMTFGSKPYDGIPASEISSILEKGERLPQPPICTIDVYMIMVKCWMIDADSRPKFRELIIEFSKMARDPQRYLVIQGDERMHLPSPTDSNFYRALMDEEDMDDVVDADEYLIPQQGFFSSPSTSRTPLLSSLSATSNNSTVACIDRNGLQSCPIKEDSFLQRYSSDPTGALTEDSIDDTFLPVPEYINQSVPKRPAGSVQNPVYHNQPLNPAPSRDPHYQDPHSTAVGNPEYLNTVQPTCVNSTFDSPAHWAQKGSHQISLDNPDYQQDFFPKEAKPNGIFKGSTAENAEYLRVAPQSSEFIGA

[2] = target: T2, mutEGFR (D770_N771insNPG, T790) (Homo sapiens, UniProt P00533, INS770NPG/T790M); assay: mutEGFR (D770_N771insNPG, T790) kinase assay; assay type: biochemical; details: Table 2a, D770_N771insNPG
T2 construct: exact insNPG construct not described; in-house EGFR proteins were N-terminal GST fusions from baculovirus/insect cells (borders R669-A1210 given only for WT, insSVD, insASV)
T2 sequence (P00533 with tags, fused parts or gaps INS770NPG/T790M limits assumed): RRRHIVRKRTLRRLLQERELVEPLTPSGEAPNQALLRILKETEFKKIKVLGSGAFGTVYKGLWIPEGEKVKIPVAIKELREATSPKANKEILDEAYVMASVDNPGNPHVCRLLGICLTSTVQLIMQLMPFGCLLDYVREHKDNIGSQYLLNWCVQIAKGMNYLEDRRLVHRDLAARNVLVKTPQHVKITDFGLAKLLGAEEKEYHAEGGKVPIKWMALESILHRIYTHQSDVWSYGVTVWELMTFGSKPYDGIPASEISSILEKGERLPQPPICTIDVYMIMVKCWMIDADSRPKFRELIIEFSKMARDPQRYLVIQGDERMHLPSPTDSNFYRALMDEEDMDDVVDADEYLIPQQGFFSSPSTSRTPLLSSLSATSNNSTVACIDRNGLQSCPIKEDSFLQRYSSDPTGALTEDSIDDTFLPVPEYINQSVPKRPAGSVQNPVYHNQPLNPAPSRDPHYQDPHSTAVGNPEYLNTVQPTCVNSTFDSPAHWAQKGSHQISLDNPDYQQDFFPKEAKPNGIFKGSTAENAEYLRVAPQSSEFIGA
Description: The different EGFR proteins used in the biochemical kinase activity inhibition assays were generated inhouse by expression in insect cells using Baculo Virus system and subsequent purification as described in the following paragraphs.
The cDNAs encoding the various protein sequences from human EGFR human (P00533) were optimized for expression in eukaryotic cells and synthesized by the GeneArt Technology at Life Technologies.

BA/F3 (insSVD) cells = assay: Ba/F3-EGFR-insSVD cell survival assay (Cell Titer-Glo); assay type: cell-based; details: Mus musculus, BaF3, 48 h, Table 3a, cell survival, Cell Titer-Glo, with 10 ng/ml EGF, without IL-3
Summary of the method: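 Ba/F3 cells stably expressing retroviral EGFR-insSVD or insSVD T790M, grown without IL-3 on 10 ng/ml EGF, 4000 cells/well. Compound pinned in, 48 h at 37° C. Viability by CellTiter-Glo luminescence.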

Row | IC50 [1] | IC50 [2] | SMILES | IC50 (BA/F3 (insSVD) cells)
1 | 0.001 µM | 0.00177 µM | Cc1cccc(-c2nn3c(c2-c2ccncc2)CN(C(=O)/C=C/CN(C)C)CC3)c1 [Example 157, (2E)-4-(dimethylamino)-1-[2-(3-methylphenyl)-3-(pyridin-4-yl)-6,7-dihydropyrazolo[1,5-a]pyrazin-5(4H)-yl]but-2-en-1-one] | 0.117 µM
2 | 0.00501 µM | 0.0164 µM | CCc1ccc(-c2nn3c(c2-c2ccncc2)CN(C(=O)/C=C/CN(C)C)CC3)cc1 [Example 158, (2E)-4-(dimethylamino)-1-[2-(4-ethylphenyl)-3-(pyridin-4-yl)-6,7-dihydropyrazolo[1,5-a]pyrazin-5(4H)-yl]but-2-en-1-one] | 0.482 µM
3 | 0.0831 µM | 0.0387 µM | CN(C)C/C=C/C(=O)N1CCn2nc(-c3cccc(C#N)c3)c(-c3ccncc3)c2C1 [Example 159, 3-{5-[(2E)-4-(dimethylamino)but-2-enoyl]-3-(pyridin-4-yl)-4,5,6,7-tetrahydropyrazolo[1,5-a]pyrazin-2-yl}benzonitrile] | 0.764 µM
4 | 0.00148 µM | 0.00658 µM | COc1ccc(-c2nn3c(c2-c2ccncc2)CN(C(=O)/C=C/CN(C)C)CC3)c(F)c1 [Example 160, (2E)-4-(dimethylamino)-1-[2-(2-fluoro-4-methoxyphenyl)-3-(pyridin-4-yl)-6,7-dihydropyrazolo[1,5-a]pyrazin-5(4H)-yl]but-2-en-1-one] | 0.973 µM
5 | 0.0929 µM | 0.629 µM | CN(C)C/C=C/C(=O)N1CCn2nc(-c3ccc(SC(F)(F)F)cc3)c(-c3ccncc3)c2C1 [Example 161, (2E)-4-(dimethylamino)-1-[3-(pyridin-4-yl)-2-{4-[(trifluoromethyl)sulfanyl]phenyl}-6,7-dihydropyrazolo[1,5-a]pyrazin-5(4H)-yl]but-2-en-1-one] | 1.99 µM
6 | 0.000507 µM | 0.00232 µM | O=C(/C=C/CN1CCC1)N1CCn2nc(-c3ccc(Cl)cc3)c(-c3ccncc3)c2C1 [Example 162, (2E)-4-(azetidin-1-yl)-1-[2-(4-chlorophenyl)-3-(pyridin-4-yl)-6,7-dihydropyrazolo[1,5-a]pyrazin-5(4H)-yl]but-2-en-1-one] | 0.0438 µM
7 | 0.00016 µM | 0.000619 µM | O=C(/C=C/CN1CCCCC1)N1CCn2nc(-c3ccc(Cl)cc3)c(-c3ccncc3)c2C1 [Example 163, (2E)-1-[2-(4-chlorophenyl)-3-(pyridin-4-yl)-6,7-dihydropyrazolo[1,5-a]pyrazin-5(4H)-yl]-4-(piperidin-1-yl) but-2-en-1-one] | 0.0474 µM
8 | 0.00299 µM | 0.00937 µM | CN1CCN(C/C=C/C(=O)N2CCn3nc(-c4ccc(Cl)cc4)c(-c4ccncc4)c3C2)CC1 [Example 164, (2E)-1-[2-(4-chlorophenyl)-3-(pyridin-4-yl)-6,7-dihydropyrazolo[1,5-a]pyrazin-5(4H)-yl]-4-(4-methylpiperazin-1-yl) but-2-en-1-one] | 0.155 µM
9 | 0.000631 µM | 0.00243 µM | O=C(/C=C/CN1CCOCC1)N1CCn2nc(-c3ccc(Cl)cc3)c(-c3ccncc3)c2C1 [Example 165, (E)-1-(2-(4-chlorophenyl)-3-(pyridin-4-yl)-6,7-dihydropyrazolo[1,5-a]pyrazin-5(4H)-yl)-4-morpholinobut-2-en-1-one] | 0.107 µM
10 | 0.000169 µM | 0.000338 µM | CC(C)N(C)C/C=C/C(=O)N1CCn2nc(-c3ccc(Cl)cc3)c(-c3ccncc3)c2C1 [Example 166, (2E)-1-[2-(4-chlorophenyl)-3-(pyridin-4-yl)-6,7-dihydropyrazolo[1,5-a]pyrazin-5(4H)-yl]-4-[isopropyl(methyl)amino]but-2-en-1-one] | 0.0781 µM
11 | 0.000256 µM | 0.00102 µM | CC(C)(C)NC/C=C/C(=O)N1CCn2nc(-c3ccc(Cl)cc3)c(-c3ccncc3)c2C1 [Example 167, (2E)-4-(tert-butylamino)-1-[2-(4-chlorophenyl)-3-(pyridin-4-yl)-6,7-dihydropyrazolo[1,5-a]pyrazin-5(4H)-yl]but-2-en-1-one] | 0.0352 µM
12 | 0.000245 µM | 0.000692 µM | COC1CCN(C/C=C/C(=O)N2CCn3nc(-c4ccc(Cl)cc4)c(-c4ccncc4)c3C2)CC1 [Example 168, (2E)-1-[2-(4-chlorophenyl)-3-(pyridin-4-yl)-6,7-dihydropyrazolo[1,5-a]pyrazin-5(4H)-yl]-4-(4-methoxypiperidin-1-yl) but-2-en-1-one] | 0.0637 µM
13 | 0.00018 µM | 0.000385 µM | COCCN(C)C/C=C/C(=O)N1CCn2nc(-c3ccc(Cl)cc3)c(-c3ccncc3)c2C1 [Example 169, (2E)-1-[2-(4-chlorophenyl)-3-(pyridin-4-yl)-6,7-dihydropyrazolo[1,5-a]pyrazin-5(4H)-yl]-4-[(2-methoxyethyl)(methyl)amino]but-2-en-1-one] | 0.0669 µM
14 | 0.000136 µM | 0.000406 µM | O=C(/C=C/CN1CCCC1)N1CCn2nc(-c3ccc(Cl)cc3)c(-c3ccncc3)c2C1 [Example 171, (2E)-1-[2-(4-chlorophenyl)-3-(pyridin-4-yl)-6,7-dihydropyrazolo[1,5-a]pyrazin-5(4H)-yl]-4-(pyrrolidin-1-yl)but-2-en-1-one] | 0.0337 µM
15 | 0.000203 µM | 0.00121 µM | O=C(/C=C/CN1CC(F)C1)N1CCn2nc(-c3ccc(Cl)cc3)c(-c3ccncc3)c2C1 [Example 172, (2E)-1-[2-(4-chlorophenyl)-3-(pyridin-4-yl)-6,7-dihydropyrazolo[1,5-a]pyrazin-5(4H)-yl]-4-(3-fluoroazetidin-1-yl) but-2-en-1-one] | 0.0432 µM
16 | 0.157 µM | 0.0255 µM | C=CC(=O)N1CCn2nc(-c3ccc(F)cc3)c(-c3ccnc4[nH]cc(C)c34)c2C1 [Example 173, 1-[2-(4-fluorophenyl)-3-(3-methyl-1H-pyrrolo[2,3-b]pyridin-4-yl)-6,7-dihydropyrazolo[1,5-a]pyrazin-5(4H)-yl]prop-2-en-1-one] | 0.0628 µM
17 | 0.176 µM | 2.13 µM | C=CC(=O)N1CCn2nc(-c3ccc(C(F)(F)F)cc3F)c(-c3ccnc4[nH]cc(C)c34)c2C1 [Example 174, 1-(2-(2-fluoro-4-(trifluoromethyl)phenyl)-3-(3-methyl-1H-pyrrolo[2,3-b]pyridin-4-yl)-6,7-dihydropyrazolo[1,5-a]pyrazin-5(4H)-yl) prop-2-en-1-one] | 0.16 µM
18 | 0.0976 µM | 0.0804 µM | C=CC(=O)N1CCn2nc(-c3ccc(Cl)cc3)c(-c3ccnc4[nH]cc(C)c34)c2C1 [Example 175, 1-[2-(4-chlorophenyl)-3-(3-methyl-1H-pyrrolo[2,3-b]pyridin-4-yl)-6,7-dihydropyrazolo[1,5-a]pyrazin-5(4H)-yl]prop-2-en-1-one] | 0.0635 µM
19 | 0.0432 µM | 0.0178 µM | C=CC(=O)N1CCn2nc(-c3cccc(Cl)c3)c(-c3ccnc4[nH]cc(C)c34)c2C1 [Example 177, 1-[2-(3-chlorophenyl)-3-(3-methyl-1H-pyrrolo[2,3-b]pyridin-4-yl)-6,7-dihydropyrazolo[1,5-a]pyrazin-5(4H)-yl]prop-2-en-1-one] | 0.0587 µM
